Results as given in US20080312301A1, “Substituted N-Benzo[D]Isoxazol-3-Yl-Amine Compounds as Inhibitors of Mglur5, Serotonin (5-Ht) and Noradrenaline Receptors, and Uses Thereof” (Gruenenthal GmbH, priority 2005, published 2008).

Target: T1, NA transporter (Rattus norvegicus, UniProt Q63380)
T1 construct: from tissue; host or cells: rat hypothalamus synaptosomes (P2 fraction)
Assay: Noradrenaline (NA) uptake inhibition in rat brain synaptosomes (hypothalamus), [3H]-NA
Type: biochemical
Settings: not given
Excerpt: I. Method for Determining the Noradrenaline and 5HT Uptake Inhibition:
For in vitro studies, synaptosomes were freshly isolated from rat brain areas as described in the publication “The isolation of nerve endings from brain” by E. G. Gray and V. P. Whittaker, J. Anatomy 96, pages 79-88, 1962. The corresponding literature description is introduced hereby as reference and forms part of the disclosure.
The tissue (hypothalamus for determining the noradrenaline uptake inhibition and medulla and pons for determining the 5HT uptake inhibition) was homogenized in ice-cold 0.32 M sucrose (100 mg of tissue/1 ml) in a glass homogenizer with Teflon pestle using five full up and down strokes at 840 revolutions/minute. The homogenate was centrifuged at 1000 g and at 4° C. for 10 minutes. After subsequent centrifugation at 17 000 g for 55 minutes, the synaptosomes (P2 fraction) are obtained and were resuspended in 0.32 M […] (0.5 ml/100 mg of the original weight).
The respective uptake was measured in a 96-well microtiter plate. The volume was 250 μl and incubation took place at room temperature (approx. 20-25° C.) under an O2 atmosphere.
The incubation time was 7.5 minutes for [^3H]-NA and 5 minutes for [^3H]-5-HT. The 96 samples were then filtered through a Unifilter GF/B® microtiter plate (Packard) and washed with […] of incubated buffer using a “Brabdel MPXRI-96T Cell Harvester”. The Unifilter GF/B plate was dried at 55° C. for 1 h. The plate was then sealed with a Back Seal® (Packard) and 35 μl of scintillation fluid were added per well (Ultima Gold®, Packard). After sealing with a top Seal® (Packard), the radioactivity was determined, after equilibrium had been reached (about 5 h), in a “Trilux 1450 Microbeta” (Wallac).
The following characteristic data were found for the NA transporter:
The amount of protein employed in the above determination corresponded to the value disclosed in the literature, as described for example in “Protein measurement with the folin phenol reagent”, Lowry et al., J. Biol. Chem., 193, 265-275, 1951. A detailed description of the method can also be found in the literature, for example from M. Ch. Frink, H.-H. Hennies, W. Engelberger, M. Haurand and B. Wilffert (1996) Arzneim.-Forsch./Drug Res. 46 (III), 11, 1029-1036. The corresponding literature descriptions are hereby introduced as reference and form part of the disclosure.

T1 sequence (Q63380 1-617): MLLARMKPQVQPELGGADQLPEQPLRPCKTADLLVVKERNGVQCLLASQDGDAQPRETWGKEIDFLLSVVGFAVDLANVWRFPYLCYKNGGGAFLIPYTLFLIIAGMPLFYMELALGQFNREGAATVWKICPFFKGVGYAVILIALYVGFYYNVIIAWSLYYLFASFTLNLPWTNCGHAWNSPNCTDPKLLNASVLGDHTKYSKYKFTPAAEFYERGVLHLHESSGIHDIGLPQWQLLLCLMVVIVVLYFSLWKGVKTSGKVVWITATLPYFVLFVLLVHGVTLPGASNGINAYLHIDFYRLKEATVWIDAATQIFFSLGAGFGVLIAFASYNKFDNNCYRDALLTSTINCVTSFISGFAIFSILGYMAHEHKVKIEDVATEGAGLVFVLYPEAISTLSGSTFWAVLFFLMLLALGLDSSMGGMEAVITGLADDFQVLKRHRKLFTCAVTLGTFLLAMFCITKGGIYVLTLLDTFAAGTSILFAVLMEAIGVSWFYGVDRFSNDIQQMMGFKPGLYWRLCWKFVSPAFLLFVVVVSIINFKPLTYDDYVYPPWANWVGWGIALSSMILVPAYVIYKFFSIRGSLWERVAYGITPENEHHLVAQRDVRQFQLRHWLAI

Point of comparison: `Nc1cccc2onc(NC(=O)c3cccc4ccccc34)c12` [Example 11, naphthalene-1-(4-aminobenzo[d]isoxazol-3-yl)carboxamide], “NA uptake inhibition [%] conc. 10 μM” value 71%. Against it:
- O=C(Nc1noc2ccc(Br)cc12)C1CC1 [Example 8, cyclopropane(5-bromobenzo[d]isoxazol-3-yl)carboxamide] — lower, 62%
- O=C(Nc1noc2cccc(F)c12)c1cc2ccccc2s1 [Example 12, benzo[b]thiophene-2-(4-fluorobenzo[d]isoxazol-3-yl)carboxamide] — lower, 60%
- O=C(Nc1noc2cc(Cl)ccc12)c1ccc2ccccc2c1 [Example 41, naphthalene-2-(6-chlorobenzo[d]isoxazol-3-yl)carboxamide] — lower, 61%
- O=C(Nc1noc2ccc(Br)cc12)c1ccco1 [Example 50, furan-2-(5-bromobenzo[d]isoxazol-3-yl)carboxamide] — lower, 66%
- O=C(Nc1noc2c(F)cccc12)c1ccc2ccccc2c1 [Example 57, naphthalene-2-(7-fluorobenzo[d]isoxazol-3-yl)carboxamide] — lower, 67%
- CCCc1ccc(C(=O)Nc2noc3cccc(F)c23)cc1 [Example 58, N-(74-fluorobenzo[d]isoxazol-3-yl)-4-propylbenzamide] — lower, 64%
- O=C(Nc1noc2c(F)cccc12)c1ccco1 [Example 63, furan-2-(7-fluorobenzo[d]isoxazol-3-yl)carboxamide] — lower, 64%
- CN(C)c1cccc2onc(NC(=O)c3ccc4ccccc4c3)c12 [Example 67, naphthalene-2-(4-dimethylaminobenzo[d]isoxazol-3-yl)carboxamide] — higher, 73%

Same assay, conditions: conc. 10 μM

Point of comparison: `O=C(Nc1noc2cc(Br)ccc12)c1ccc(F)cc1C(F)(F)F` [Example 43, N-(6-bromobenzo[d]isoxazol-3-yl)-4-fluoro-2-trifluoromethylbenzamide], inhibition at 10 µM 66%. Against it:
- COc1cccc2onc(NC(=O)C(c3ccccc3)c3ccccc3)c12 [Example 7, N-(4-methoxybenzo[d]isoxazol-3-yl)-2,2-diphenylacetamide] — lower, 63%
- O=C(Nc1noc2cc(F)ccc12)c1cc(Cl)cc(Cl)c1 [Example 9, 3,5-dichloro-N-(6-fluorobenzo[d]isoxazol-3-yl)benzamide] — higher, 67%
- Nc1cccc2onc(NC(=O)c3ccc([N+](=O)[O-])cc3)c12 [Example 10, N-(4-aminobenzo[d]isoxazol-3-yl)-4-nitrobenzamide] — the same, 66%
- O=C(Nc1noc2cc(Cl)ccc12)c1ccc(I)cc1 [Example 40, N-(6-chlorobenzo[d]isoxazol-3-yl)-4-iodobenzamide] — lower, 61%
- O=C(Nc1noc2cc(Cl)ccc12)c1ccc(F)c(F)c1 [Example 42, N-(6-chlorobenzo[d]isoxazol-3-yl)-3,4-difluorobenzamide] — lower, 64%
- O=C(Nc1noc2cc(Br)ccc12)c1cc(F)c(Cl)cc1Cl [Example 44, 2,4-dichloro-N-(6-bromobenzo[d]isoxazol-3-yl)-5-fluorobenzamide] — lower, 61%
- O=C(Nc1noc2cc(Br)ccc12)c1ccc(C(F)(F)F)c(F)c1 [Example 45, N-(6-bromobenzo[d]isoxazol-3-yl)-3-fluoro-4-trifluoromethylbenzamide] — lower, 64%
- O=C(Nc1noc2cc(Br)ccc12)c1cc(F)cc(C(F)(F)F)c1 [Example 46, N-(6-bromobenzo[d]isoxazol-3-yl)-3-fluoro-5-trifluoromethylbenzamide] — lower, 65%
- O=C(Nc1noc2cc(Br)ccc12)c1ccc(F)c(F)c1F [Example 47, N-(6-bromobenzo[d]isoxazol-3-yl)-2,3,4-trifluorobenzamide] — the same, 66%
- CCCc1ccc(C(=O)Nc2noc3cc(Br)ccc23)cc1 [Example 48, N-(6-bromobenzo[d]isoxazol-3-yl)-4-propylbenzamide] — lower, 61%
- O=C(Nc1noc2c(F)ccc(F)c12)c1ccccc1C(F)(F)F [Example 51, 7-fluoro-N-(4-fluorobenzo[d]isoxazol-3-yl)-2-trifluoromethylbenzamide] — higher, 71%
- O=C(Nc1noc2c(F)cccc12)c1cc(F)c(Cl)cc1Cl [Example 52, 2,4-dichloro-5-fluoro-N-(7-fluorobenzo[d]isoxazol-3-yl)benzamide] — higher, 70%
- O=C(Nc1noc2c(F)cccc12)c1ccc(C(F)(F)F)c(F)c1 [Example 53, 3-fluoro-N-(7-fluorobenzo[d]isoxazol-3-yl)-4-trifluoromethylbenzamide] — higher, 69%
- O=C(Nc1noc2c(F)cccc12)c1ccc(F)c(F)c1F [Example 54, 2,3,4-trifluoro-N-(7-fluorobenzo[d]isoxazol-3-yl)benzamide] — lower, 63%
- O=C(Nc1noc2c(F)cccc12)c1ccc(I)cc1 [Example 55, N-(7-fluorobenzo[d]isoxazol-3-yl)-4-iodobenzamide] — higher, 69%
- O=C(Nc1noc2c(F)cccc12)c1cccnc1Cl [Example 56, 2-chloro-N-(7-fluorobenzo[d]isoxazol-3-yl)nicotinamide] — higher, 72%
- O=C(Nc1noc2c(F)cccc12)c1ccc(F)c(F)c1 [Example 59, 3,4-difluoro-N-(7-fluorobenzo[d]isoxazol-3-yl)benzamide] — higher, 67%
- O=C(Nc1noc2c(F)cccc12)c1cccc(C(F)(F)F)c1F [Example 60, 2-fluoro-N-(7-fluorobenzo[d]isoxazol-3-yl)-3-trifluoromethylbenzamide] — the same, 66%
- COc1cccc(C(=O)Nc2noc3c(F)cccc23)c1 [Example 61, N-(7-fluorobenzo[d]isoxazol-3-yl)-3-methoxybenzamide] — the same, 66%
- O=C(Nc1noc2c(F)cccc12)C(c1ccccc1)c1ccccc1 [Example 62, N-(7-fluorobenzo[d]isoxazol-3-yl)-2,2-diphenylacetamide] — lower, 63%
- CN(C)c1cccc2onc(NC(=O)c3cc(F)c(Cl)cc3Cl)c12 [Example 64, 2,4-dichloro-N-(4-dimethylaminobenzo[d]isoxazol-3-yl)-5-fluorobenzamide] — lower, 63%
- CN(C)c1cccc2onc(NC(=O)c3ccc(F)c(F)c3F)c12 [Example 65, N-(4-dimethylaminobenzo[d]isoxazol-3-yl)-2,3,4-trifluorobenzamide] — higher, 68%
- CN(C)c1cccc2onc(NC(=O)c3cccnc3Cl)c12 [Example 66, 2-chloro-N-(4-dimethylaminobenzo[d]isoxazol-3-yl)nicotinamide] — lower, 64%
- CCCc1ccc(C(=O)Nc2noc3cccc(N(C)C)c23)cc1 [Example 68, N-(4-dimethylaminobenzo[d]isoxazol-3-yl)-4-propylbenzamide] — higher, 73%
- CN(C)c1cccc2onc(NC(=O)c3ccc(F)c(F)c3)c12 [Example 69, N-(4-dimethylaminobenzo[d]isoxazol-3-yl)-3,4-difluorobenzamide] — higher, 67%
- CN(C)c1cccc2onc(NC(=O)c3cccc(C(F)(F)F)c3F)c12 [Example 70, N-(4-dimethylaminobenzo[d]isoxazol-3-yl)-2-fluoro-3-trifluoromethylbenzamide] — the same, 66%
- COc1cccc(C(=O)Nc2noc3cccc(N(C)C)c23)c1 [Example 71, N-(4-dimethylaminobenzo[d]isoxazol-3-yl)-3-methoxybenzamide] — lower, 65%
- CN(C)c1cccc2onc(NC(=O)C(C)(C)C)c12 [Example 72, N-(4-dimethylaminobenzo[d]isoxazol-3-yl)-2,2-dimethylpropionamide] — the same, 66%
- CN(C)c1cccc2onc(NC(=O)C(c3ccccc3)c3ccccc3)c12 [Example 74, N-(4-dimethylaminobenzo[d]isoxazol-3-yl)-2,2-diphenylacetamide] — higher, 70%
- CN(C)c1cccc2onc(NC(=O)C(F)(F)C(F)(F)C(F)(F)F)c12 [Example 76, N-(4-dimethylaminobenzo[d]isoxazol-3-yl)-2,2,3,3,4,4,4-heptafluorobutyramide] — higher, 67%
- O=C(Nc1noc2cccc(OCC(F)(F)F)c12)c1cc(F)c(Cl)cc1Cl [Example 78, 2,4-dichloro-5-fluoro-N-[4-(2,2,2-trifluoroethoxy)benzo[d]isoxazol-3-yl]benzamide] — the same, 66%
- O=C(Nc1noc2cccc(OCC(F)(F)F)c12)c1ccc(C(F)(F)F)c(F)c1 [Example 79, 3-fluoro-N-[4-(2,2,2-trifluoroethoxy)benzo[d]isoxazol-3-yl]-4-trifluoromethyl-benzamide] — lower, 62%
